Results as given in US8247211B2, “Glycopeptide antibiotics” (American Cyanamid Company, priority 2001, dated 2012).
≈ marks a conversion by molar mass, not a printed value.

Legend:
Assay in all cases: In vitro antibacterial evaluation: minimum inhibitory concentration (MIC), broth dilution method
Type in all cases: cell-based
[1] = system: Staphylococcus sp.
How it was run: (§1)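 Broth dilution per NCCLS M7-A2 in Muller-Hinton II […], inoculum 5×10^5 CFU/mL, antibiotic tested over 64-0.06 μg/mL. MIC is taken as the lowest concentration that inhibits growth. Panel includes recent clinical isolates resistant to methicillin, penicillin and/or vancomycin.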

[2] = system: Escherichia coli; details: 18 hours at 35° C.
How it was run: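 Inoculum: 5×10^5 CFU/mL. Range: 64-0.06 μg/mL. Medium: Muller-Hinton II […]; NCCLS M7-A2 broth dilution. Endpoint: lowest concentration inhibiting growth. Strains include methicillin-, penicillin- and/or vancomycin-resistant clinical isolates.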

[3] = system: Enterococcus sp.; details: 18 hours at 35° C.
How it was run: as §1

[4] = system: Streptococcus sp.; details: 18 hours at 35° C.
How it was run: as §1

[5] = broth dilution, inoculum 5×10^5 CFU/mL

Compound: CC(c1ccccc1)C1NC(=O)CNC(=O)C(CO)NC(=O)C(C(O)C2CNC(=N)N2C2OC(CO)C(O)C(O)C2O)NC(=O)C(C(O)C2CNC(=N)N2)NC(=O)C(Cc2ccc(OC3OC(CO)C(OC4OC5COC6(CCCCCCCCCCC6)OC5C(O)C4O)C(O)C3O)cc2)NC1=O (stereo not drawn) [Example 209, Cyclo[glycyl-β-methylphenylalanyl-O-[4-O-(4,6-O-cyclododecylidenehexopyranosyl)-hexopyranosyl]tyrosyl-3-(2-iminoimidazolidin-4-yl)seryl-3-(3-hexopyranosyl-2-iminoimidazolidin-4-yl)serylseryl]]
- MIC Staphylococcus aureus (ATCC 29213) ([1]; strain ATCC 29213): 4 µg/mL (≈ 2.74 µM)
- MIC Staphylococcus aureus (GC 1131) ([1]; strain GC 1131): 2 µg/mL (≈ 1.37 µM)
- MIC Staphylococcus aureus (GC 4541) ([1]; strain GC 4541): 2 µg/mL (≈ 1.37 µM)
- MIC Staphylococcus aureus-SMITH (GC 4543) ([1]; strain GC 4543): 1 µg/mL (≈ 0.685 µM)
- MIC Coagulase Negative Staphylococcus (GC 4547) ([1]; strain GC 4547): 4 µg/mL (≈ 2.74 µM)
- MIC Coagulase Negative Staphylococcus (GC 4548) ([1]; strain GC 4548): 1 µg/mL (≈ 0.685 µM)
- MIC Coagulase Negative Staphylococcus (GC 4549) ([1]; strain GC 4549): 1 µg/mL (≈ 0.685 µM)
- MIC Coagulase Negative Staphylococcus (GC 6257) ([1]; strain GC 6257): 2 µg/mL (≈ 1.37 µM)
- MIC Escherichia coli (ATCC 25922) ([2]; Escherichia coli (ATCC 25922)): 64 µg/mL (≈ 43.8 µM)
- MIC Escherichia coli (GC 4559) ([2]; Escherichia coli (GC 4559)): >64 µg/mL
- MIC Escherichia coli (GC 4560) ([2]; Escherichia coli (GC 4560)): 4 µg/mL (≈ 2.74 µM)
- MIC Enterococcus avium (GC 4558) ([3]; Enterococcus avium (GC 4558)): 4 µg/mL (≈ 2.74 µM)
- MIC Enterococcus faecalis (ATCC 29212) ([3]; Enterococcus faecalis (ATCC 29212)): 4 µg/mL (≈ 2.74 µM)
- MIC Enterococcus faecalis (GC 2242) ([3]; Enterococcus faecalis (GC 2242)): 4 µg/mL (≈ 2.74 µM)
- MIC Enterococcus faecalis (GC 6189) ([3]; Enterococcus faecalis (GC 6189)): 1 µg/mL (≈ 0.685 µM)
- MIC Enterococcus faecium (GC 2243) ([3]; Enterococcus faecium (GC 2243)): 1 µg/mL (≈ 0.685 µM)
- MIC Enterococcus faecium (GC 4556) ([3]; Enterococcus faecium (GC 4556)): 4 µg/mL (≈ 2.74 µM)
- MIC Enterococcus avium (GC 4558) [3, 5]: 4 µg/mL (≈ 2.74 µM)
- MIC Enterococcus faecalis (ATCC 29212) [3, 5]: 4 µg/mL (≈ 2.74 µM)
- MIC Enterococcus faecalis (GC 2242) [3, 5]: 4 µg/mL (≈ 2.74 µM)
- MIC Enterococcus faecalis (GC 6189) [3, 5]: 1 µg/mL (≈ 0.685 µM)
- MIC Enterococcus faecium (GC 2243) [3, 5]: 1 µg/mL (≈ 0.685 µM)
- MIC Enterococcus faecium (GC 4556) [3, 5]: 4 µg/mL (≈ 2.74 µM)
- MIC Streptococcus pneumoniae (ATCC 6301) ([4]; Streptococcus pneumoniae (ATCC 6301)): <0.06 µg/mL
- MIC Streptococcus pneumoniae (GC 1894) ([4]; Streptococcus pneumoniae (GC 1894)): <0.06 µg/mL
- MIC Streptococcus pneumoniae (ATCC 6301) [4, 5]: <0.06 µg/mL
- MIC Streptococcus pneumoniae (GC 1894) [4, 5]: <0.06 µg/mL
